{"source": "patent US10183055B2", "about": "“Ang-(1-7) derivative oligopeptides for the treatment of pain and other indications” (ARIZONA BOARD OF REGENTS ON BEHALF OF THE UNIVERSITY OF …, priority 2014, dated 2019)", "key": {"[1]": {"test": "In Vitro Serum Half-Life Assay", "conditions": "mouse", "quoted_text": "(§1) Aliquots were withdrawn at the indicated time intervals and the peptide concentration was determined using HPLC-MS and expressed as a percentage of the initial concentration."}, "naïve mice": {"test_system": "naïve mice", "test": "Rotarod performance test", "format": "in vivo", "conditions": "spinal 0.3 pmol/5 μL or systemic 0.058 and 10 μg/kg", "experimental": "Rotarod: A rotarod performance test was used to determine the motor and/or sedative effects of Ang-(1-7) (Rotamex 4/8, Columbus Instruments, Columbus, Ohio, USA). Three days prior to testing, naïve mice were subjected to 5 trials in which they were able to acclimate to the rotating rod (10 revolutions/min). On the day of testing, animals were allowed one trial and then baselined. The amount of time the animal remained on the rod was recorded, with a cutoff time of 120 seconds to prevent exhaustion. Animals were dosed (i.p.) as previously described and reevaluated 15, 30, 60, and 120 minutes post-administration.\nTo exclude the possibility that Ang-(1-7) administration reduced mobility in order to increase tail withdraw latency, rotarod testing was performed. Naïve animals were trained to walk on a rotating rod for 2 min. After training, animals were injected with Ang-(1-7) by either spinal (0.3 pmol/5 μL) or systemic routes (0.058 and 10 μg/kg)."}, "[2]": {"test_system": "BALB/cAnNHsd mice with intramedullary 66.1 cells (CIBP)", "test": "Established CIBP, acute behavioral testing (flinching/guarding)", "format": "in vivo", "conditions": "for pain behaviors, AT1 or AT2 antagonist administered alone: 0.4 mg/kg i.p.", "experimental": "Animals: Female BALB/cAnNHsd mice (Harlan, Ind., USA) between 15 and 20 g were used in this study. Mice were housed in a climate control room on a 12-hour light/dark cycle and allowed food and water ad libitum. Animals were monitored on days 0, 7, 10, and 14 of the study for clinical signs of rapid weight loss and signs of distress.\nAll intraperitoneal (i.p.) injections were made at a volume of 10 mL/kg.\nArthrotomy—Intramedullary Implantation of 66.1 Cells: To induce CIBP, an arthrotomy was performed. Briefly, animals were anesthetized with 80 mg/kg ketamine-12 mg/kg xylazine (in a 10 mL/kg volume). The surgical area was shaved and cleaned with 70% ethanol and betadine. The condyles of the right femur were exposed and a burr-hole (0.66 mm) was drilled to create a space for the 66.1 cell inoculation. A 5 μl volume of 66.1 cells (8,000 cells per 1 μl) in MEM (or 5 μl MEM without cells in sham animals) was injected into the intramedullary space of the mouse femora. Proper placement of the injector was confirmed by radiograph (Faxitron X-ray imaging). Holes were sealed with bone cement and the patella reset. Muscle and skin were closed in separate layers with 5-0 vicryl suture and wound autoclips, respectively. Animals were given 8 mg/kg (10 mL/kg volume) gentamicin to prevent infection. Staples were removed 7 days post-surgery.\nAcute Behavioral Testing: Fourteen days post-surgery, baseline behaviors of spontaneous flinching/guarding were recorded. Flinching was characterized by the lifting and rapid flexing of the hind paw ipsilateral to femoral inoculation when not associated with walking or other movement. Guarding was characterized by the lifting the inoculated hind limb into a fully retracted position under the torso. The total number of flinches and the time spent guarding 2 min duration was recorded. […] Antagonists were administered 30 minutes prior to Ang-(1-7). Following administration, animals were tested at over a three-hour time course until their pain behaviors returned to baseline"}, "[3]": {"conditions": "mouse, serum", "quoted_text": "as §1"}, "[4]": {"test": "In vivo serum and CSF concentration after subcutaneous injection", "quoted_text": "The peptides (10 mg/kg) or vehicle control were individually subcutaneously injected into naïve mice. Serum concentrations were determined every 10 minutes by HPLC-MS using a 20-30 μl blood sample. […] CSF samples were simultaneously withdrawn from the same animals via a microdialysis probe and assayed for the peptide concentration and corrected for basal CSF levels."}, "[5]": {"test_system": "human umbilical vascular endothelial cells (HUVEC)", "test": "xCELLigence RTCA cell activation (cell impedance)", "format": "cell-based", "source_text": "Cell culture. To isolate primary hippocampal CA1 neuronal cells, whole brain was removed from neonatal rat pups (1-2 day old) and the cortices dissected away. The hippocampus was isolated and the CA1 field was excised and placed in buffer. After gentle disruption in digestion buffer, the cells were counted, placed in culture media, and plated in a 96-well format coated with poly-d-lysine. At the time of plating, cells were approximately at 50% density and were allowed to culture to 70-80% density before starting the assay. Commercially available HUVEC (Life Technologies/Thermo Fisher) was thawed and plated (5000-10,000 cells/well) in a 96-well format coated with gelatin. HUVEC cells were allowed to culture overnight before starting the assay.\nCell Activation: The xCELLigence system Real-Time Cell Analyzer (RTCA), developed by Roche Applied Science, uses microelectronic biosensor technology to do dynamic, real-time, label-free, and non-invasive analysis of cellular events including G-protein receptor activation of cells. The RTCA analysis was utilized to measure the potency and relative ability of oligopeptides of the invention and native Ang-(1-7) to activate human umbilical vascular endothelial cells (HUVEC) in culture. Following uniform cellular adherence based on a linear increase in cell impedance (CI), HUVECs were treated with Ang-(1-7) and oligopeptides of the invention. Each trace of the CI over time in FIG. 1 represents the average of 4 wells normalized to CI at the time of compound addition."}, "[6]": {"test_system": "human umbilical vascular endothelial cells (HUVEC)", "test": "NO production assay (DAF-FM fluorescence, microplate reader)", "format": "cell-based", "conditions": "5 minutes exposure", "experimental": "NO production assay. As a screen for mechanisms of action of oligopeptides of the invention, the ability to increase NO production of three oligopeptides of the invention (PN-A3, PN-A4 and PN-A5) were characterized and compared to native Ang-(1-7). Human umbilical vascular endothelial cells (HUVEC) culture plates received fluorescence reaction buffer (0.2 M phosphate buffer, pH 7, 1 mM EDTA, 0.1% glucose) containing diaminofluorescein-FM diacetate (DAF-FM, 1 μM) to measure real-time NO production. Time-resolved (10 minutes) fluorescent intensity was detected using a BioTek Synergy 2 microplate reader with excitation at 485 nm and emission at 535 nm. DAF-FM is a sensitive flourometric derivative for the selective detection of NO in live cells.\nValues were normalized to control fluorescence."}}, "note": "Like-named read-outs stand apart in the source and are kept apart here. Residues, ends and D or L forms follow the SMILES beside them. *: point of attachment. X2 = OC[C@H]1O[C@@H](O[C@H]2[C@H](O)[C@@H](O)[C@H](*)O[C@@H]2CO)[C@H](O)[C@@H](O)[C@H]1O; X1 = OC[C@H]1OC(*)[C@H](O)[C@@H](O)[C@@H]1O", "data": [{"compound": "CC[C@H](C)[C@H](NC(=O)[C@H](Cc1ccc(O)cc1)NC(=O)[C@@H](NC(=O)[C@H](CCCNC(=N)N)NC(=O)[C@@H](N)CC(=O)O)C(C)C)C(=O)N[C@@H](Cc1c[nH]cn1)C(=O)N[C@@H](CO[C@@H]1O[C@H](CO)[C@@H](O[C@@H]2O[C@H](CO)[C@H](O)[C@H](O)[C@H]2O)[C@H](O)[C@H]1O)C(N)=O", "note": "[Ang 1-6-Ser(OLac)-NH2] (H-DRVYIHS(X2)-NH2)", "values": [{"measurement": "half-life", "setting": "[1]", "result": 5.8, "unit": "h"}]}, {"compound": "CC[C@H](C)[C@H](NC(=O)[C@H](Cc1ccc(O)cc1)NC(=O)[C@@H](NC(=O)[C@H](CCCNC(=N)N)NC(=O)[C@@H](N)CC(=O)O)C(C)C)C(=O)N[C@@H](Cc1c[nH]cn1)C(=O)N1CCC[C@H]1C(=O)O", "note": "[Ang-(1-7), Asp-Arg-Val-Tyr-Ile-His-Pro]", "values": [{"measurement": "rotarod latencies versus vehicle", "setting": "naïve mice", "result": "No significant differences in rotarod latencies"}]}, {"compound": "CCCCc1nc(Cl)c(CO)n1Cc1ccc(-c2ccccc2-c2nn[nH]n2)cc1", "note": "[Losartan potassium]", "values": [{"measurement": "pain behaviors, AT1 or AT2 antagonist administered alone", "setting": "[2]", "result": "neither Losartan potassium nor PD 123319 significantly altered pain behaviors"}, {"measurement": "MPE in reducing flinching", "setting": "[2]; Losartan potassium 0.4 mg/kg i.p. 30 minutes prior to Ang-(1-7) 0.058 μg/kg, 15 minutes post-administration", "result": 80.56, "unit": "%"}, {"measurement": "maximal possible efficacy (MPE) in reducing guarding", "setting": "[2]; Losartan potassium 0.4 mg/kg i.p. 30 minutes prior to Ang-(1-7) 0.058 μg/kg, 30 minutes post-administration", "result": 77.527, "unit": "%"}]}, {"compound": "Cc1cc(Cn2cnc3c2C[C@@H](C(=O)O)N(C(=O)C(c2ccccc2)c2ccccc2)C3)ccc1N(C)C", "note": "[PD 123319]", "values": [{"measurement": "pain behaviors, AT1 or AT2 antagonist administered alone", "setting": "[2]", "result": "neither Losartan potassium nor PD 123319 significantly altered pain behaviors"}, {"measurement": "guarding or flinching versus Ang-(1-7) alone", "setting": "[2]; PD 123319 0.4 mg/kg i.p. 30 minutes prior to Ang-(1-7) 0.058 μg/kg", "result": "did not further increase nor decrease guarding or flinching"}]}, {"compound": "CC[C@H](C)[C@H](NC(=O)[C@H](Cc1ccc(O)cc1)NC(=O)[C@@H](NC(=O)[C@H](CCCNC(=N)N)NC(=O)[C@@H](N)CC(=O)O)C(C)C)C(=O)N[C@@H](Cc1c[nH]cn1)C(=O)N[C@@H](COC1O[C@H](CO)[C@@H](O)[C@H](O)[C@H]1O)C(N)=O", "note": "(stereo partly drawn) [PN-A5, Ang 1-6-Ser(OGlc)-NH2] (H-DRVYIHS(X1)-NH2)", "values": [{"measurement": "half-life", "setting": "[3]", "result": 1, "unit": "h"}, {"measurement": "maximum CSF concentration", "setting": "[4]; 10 mg/kg subcutaneous, naïve mice, microdialysis, corrected for basal CSF levels", "result": "about 400 nM"}, {"measurement": "Cmax", "setting": "[4]; mouse, serum, sc, 10 mg/kg", "result": "~3.5", "unit": "µM"}]}, {"compound": "PN-A3: Asp Arg Val Tyr Ile His Pro Ser* (glucosylated), carboxyl terminal NH2 (SEQ ID NO: 8) (DRVYIHPS; glucosylated; C-terminal amide; MOD_RES (8)..(8) Glucosylated-Ser; C-term -NH2)", "values": [{"measurement": "increase in cell impedance (CI) over the native Ang-(1-7)", "setting": "[5]; 10 nM", "result": "~2", "unit": "fold"}, {"measurement": "increase in cell impedance (CI) over the native Ang-(1-7)", "setting": "[5]; 100 nM", "result": "~2", "unit": "fold"}, {"measurement": "NO production versus control levels (relative peak fluorescence intensity)", "setting": "[6]", "result": "significant elevation of NO over control levels"}]}, {"compound": "PN-A4: Asp Arg Val Tyr Ile His Pro Ser** (lactosylated), carboxyl terminal NH2 (SEQ ID NO: 9) (DRVYIHPS; lactosylated; C-terminal amide; MOD_RES (8)..(8) Lactosylated-Ser; C-term -NH2)", "values": [{"measurement": "increase in cell impedance (CI) over the native Ang-(1-7)", "setting": "[5]; 100 nM", "result": "~2", "unit": "fold"}, {"measurement": "NO production versus control levels (relative peak fluorescence intensity)", "setting": "[6]", "result": "significant elevation of NO over control levels"}]}]}
